{"source": "patent US7862836B2", "about": "“Phosphorus binder for treatment of kidney disease” (Biolink Life Sciences, Inc., priority 2005, dated 2011)", "key": {"Stability during storage": {"assay": "Stability during storage", "type": "physicochemical"}, "[1]": {"settings": "Sheikh et al., cited from earlier work; for Observed in vitro Pi Binding, %: pH 6.0"}, "[2]": {"settings": "mean of triplicate", "description": "The pH of each solution was adjusted to the desired value by the addition of concentrated hydrochloric acid or sodium hydroxide, as appropriate.\nThe separation was performed on a Dionex AS11 Cation-Exchange HPLC column integrated with an Agilent Series 1100 HPLC system, and detection of the anionic species was enabled using a Dionex ED50 Electrochemical Detector, operating in Conductivity Mode. Limits of Detection and Quantitation were enhanced through the use of a Dionex Anion Self-Regenerating Suppressor. After assay-specific development and verification of assay performance were completed, the analysis of phosphate and succinate or acetate was performed by sampling the test solution and diluting it, if necessary, to a concentration within the linear range of the Assay. The sample was then injected onto the HPLC column and eluted with a sodium hydroxide gradient. Data were acquired using Agilent ChemStation® software.\nThe test or control binder was dissolved in deionized water to a volume of 30 mL. The binder solution was added to the phosphorus solution to give a final volume of 600 mL. For each binder study, the phosphorus solutions were titrated by addition of concentrated HCl or NaOH to two different initial pH levels: 4 and 6. […] This was expressed as percent of the total phosphorus present in the original solution. […]"}, "[3]": {"settings": "in many patients; cited from earlier work"}, "[4]": {"settings": "cited from earlier work"}, "[5]": {"settings": "cited from earlier work", "remark": "listed apart in the source"}, "[6]": {"tested_on": "parathyroid hormone (PTH) secretion", "settings": "maintenance dialysis patients; cited from earlier work"}, "[7]": {"assay": "Solubility in water of cationic phosphate binders (Table 1)"}, "[8]": {"settings": "600 mg oral, cited from earlier work"}, "[9]": {"settings": "cited from earlier work; for Fractional phosphorus absorption / Net phosphorus absorption: mean ± SE"}, "[10]": {"settings": "hemodialysis or peritoneal dialysis patients; cited from earlier work"}}, "note": "Where two headings read alike, the source gives them in different places."}
{"molecule": "O=C(O)CCCC[C@@H]1CCSS1", "note": "[(R)-(+)-lipoic acid]", "values": [{"measurement": "stability during storage", "setting": "Stability during storage", "value": "even more unstable during storage"}]}
{"molecule": "O=C([O-])CC(O)(CC(=O)[O-])C(=O)[O-].O=C([O-])CC(O)(CC(=O)[O-])C(=O)[O-].[Ca+2].[Ca+2].[Ca+2]", "note": "[Calcium Citrate]", "values": [{"measurement": "Observed in vitro Pi Binding, %", "setting": "[1]", "value": 10, "unit": "%"}, {"measurement": "Observed in vitro Pi Binding", "setting": "[1]; pH 6.5", "value": "20% at pH 6.5 (NOTE 2)"}]}
{"molecule": "O=C([O-])CCC(=O)[O-].[Ca+2]", "note": "[Calcium Succinate]", "values": [{"measurement": "Observed in vitro Pi Binding, %", "setting": "[2]; pH 4.0", "value": 59.4, "unit": "%"}, {"measurement": "Observed in vitro Pi Binding, %", "setting": "[2]; pH 6.0", "value": 94.0, "unit": "%"}]}
{"molecule": "[Mg+2].[OH-].[OH-]", "note": "[Magnesium Hydroxide]", "values": [{"measurement": "severe hyperkalemia", "setting": "[3]", "value": "≤ 8", "unit": "mEq/L"}, {"measurement": "serum Pi levels", "setting": "[4]; avg 734 mg elemental Mg/day, 3-5 weeks, control (no binders) 9.0 mg/dL", "value": 8.1, "unit": "mg/dL"}, {"measurement": "mean serum Mg levels", "setting": "[4]; avg 734 mg elemental Mg/day, dialysate Mg 1.2 to 1.8 mg/dl", "value": 4.32, "unit": "mg/dL"}, {"measurement": "patients who developed diarrhea", "setting": "[4]; nine hemodialysis patients", "value": "Four of nine"}, {"measurement": "serum Pi levels", "setting": "[5]; avg 991 mg elemental Mg daily, dialysate lacking Mg, rose from 4.3", "value": 6.1, "unit": "mg/dL"}, {"measurement": "serum Mg level (average)", "setting": "[5]; during Mg(OH)2 treatment", "value": 4.3, "unit": "mg/dL"}, {"measurement": "suppressing parathyroid hormone (PTH) secretion", "setting": "[6]", "value": "Neither the combination of oral calcium carbonate/magnesium hydroxide nor magnesium hydroxide alone was effective"}]}
{"molecule": "[O]=[Mg]", "note": "[Magnesium Oxide]", "values": [{"measurement": "Hydrophile?", "setting": "[7]", "value": "No"}]}
{"molecule": "O=C(O)CCCCC1CCSS1", "note": "(centres unmarked) [lipoic acid, 1,2-dithiolane-3-pentanoic acid]", "values": [{"measurement": "safety when ingested by patients with kidney disease", "setting": "[8]", "value": "safe"}, {"measurement": "pharmacokinetics, influence of renal function", "setting": "[8]; severely reduced kidney function or ESRD vs healthy", "value": "not influenced by creatinine clearance"}, {"measurement": "stability during storage", "setting": "Stability during storage", "value": "unstable during storage"}]}
{"molecule": "O=C([O-])CCCC[C@@H]1CCSS1.O=C([O-])CCCC[C@@H]1CCSS1.[Mg+2]", "note": "[magnesium (R)-(+)-lipoate]", "values": [{"measurement": "stability during storage", "setting": "Stability during storage", "value": "stable during storage"}]}
{"molecule": "Calcium Gluconate", "values": [{"measurement": "Observed in vitro Pi Binding, %", "setting": "[1]", "value": 90, "unit": "%"}]}
{"molecule": "Magnesium Acetate", "values": [{"measurement": "fractional absorption of dietary Pi", "setting": "[9]; 50 mEq of the salt, reduced from 77%", "value": 34, "unit": "%"}, {"measurement": "Pi absorption from ingesta", "setting": "[9]; 77 mEq per os, 75% with placebo, normal subjects", "value": 28, "unit": "%"}, {"measurement": "fractional magnesium absorption", "setting": "[9]; highest magnesium intake", "value": 11, "unit": "%"}, {"measurement": "fractional magnesium absorption", "setting": "[9]; lowest magnesium intake", "value": 65, "unit": "%"}, {"measurement": "Fractional phosphorus absorption", "setting": "[9]; standard meal + 10.2 mEq MgAc", "value": "55.8 ± 2.8", "unit": "%"}, {"measurement": "Net phosphorus absorption", "setting": "[9]; standard meal + 10.2 mEq MgAc", "value": "7.5 ± 0.4", "unit": "mmol"}, {"measurement": "Fractional phosphorus absorption", "setting": "[9]; standard meal + 19.4 mEq MgAc", "value": "47.1 ± 3.4", "unit": "%"}, {"measurement": "Net phosphorus absorption", "setting": "[9]; standard meal + 19.4 mEq MgAc", "value": "6.3 ± 0.5", "unit": "mmol"}, {"measurement": "Fractional phosphorus absorption", "setting": "[9]; standard meal + 39.0 mEq MgAc", "value": "37.0 ± 5.4^|| %"}, {"measurement": "Net phosphorus absorption", "setting": "[9]; standard meal + 39.0 mEq MgAc", "value": "4.8 ± 0.7^|| mmol"}, {"measurement": "Fractional phosphorus absorption", "setting": "[9]; standard meal + 77.2 mEq MgAc", "value": "28.1 ± 4.8^¶ %"}, {"measurement": "Net phosphorus absorption", "setting": "[9]; standard meal + 77.2 mEq MgAc", "value": "3.8 ± 0.6^¶ mmol"}]}
{"molecule": "choline magnesium trisalicylate", "values": [{"measurement": "effect on serum Pi levels", "setting": "[10]", "value": "no effect"}]}
{"molecule": "magnesium lipoate", "values": [{"measurement": "stability during storage", "setting": "Stability during storage", "value": "stable during storage"}]}
